10 molecules from patent US4696930A, “N-(heteroarylalkyl)acylanilide derivatives as antiarrhythmic agents” (Hoffmann-La Roche Inc., priority 1985, dated 1987) can be followed below.

Read-outs that look alike come from different tables or passages of the source.

For data set [1], the system named is Ouabain-induced ventricular arrhythmia. Kind of data set: Effectiveness against ouabain-induced ventricular arrhythmia in anesthetized dogs. Type of data set: in vivo, dog. The following applies: for minimal effective dose: Canis lupus familiaris, iv; for minimal effective dose / No. of effective cases/No. of experiments: dog. The procedure: Ventricular arrhythmia in an anesthetized dog was induced by an intravenous administration of ouabain. An initial i.v. dose of 40 μg/kg was administered, then 20 μg/kg i.v. 30 minutes later and then additional 10 μg/kg i.v. every 15 minutes until ventricular arrhythmia developed. […] The test compound, which was rac.-2-amino-N-(2,6-dimethylphenyl)-N-[3-(3-pyridinyl)propyl]propanamide dihydrochloride, dissolved in saline solution, was injected into the femoral vein 10 min. after the development of the arrhythmia. The dose schedule for the test compound was 1, 3 and 10 mg/kg i.v. in this order at 15 minute intervals until the arrhythmia was reversed to sinus rhythm.
Effectiveness against Ouabain-induced
Ventricular Arrhythmia in Dogs
MED: Minimum effective dose was measured by successive injections of 1, 3
and 10 mg/kg into the femoral vein at 15 minuteintervals until
ouabaininduced arrhythmia was reversed to the sinus rhythm.

A further data set addresses Thromboxane Synthase. Description: Thromboxane synthase inhibition (Table III, enzyme source not stated). Type of data set: biochemical. The settings on record: platelet species not stated, read-out: Thromboxane Synthase Inh. IC50. On the procedure:
(§1) Rac.-2-amino-N-(2,6-dimethylphenyl)-N-[3-(3-pyridinyl)propyl]propanamide dihydrochloride was tested for its inhibitory effects on thromboxane A2 synthetase (washed rabbit platelet) activity in vitro.
(§2) Therefore, rac.-2-amino-N-(2,6-dimethylphenyl)-N-[3-(3-pyridinyl)propyl]propanamide dihydrochloride is useful in the treatment of ischemic heart disease.

Data set [2] deals with Arachidonic Acid (AA) induced aggregation of human platelet rich plasma. Description: Inhibition of arachidonic acid (AA) induced platelet aggregation. In kind it is cell-based. The following applies: 2 min, human PRP, AA 0.3 to 1 mM. On the procedure: (§3) Human platelet rich plasma (PRP) and platelet poor plasma (PPP) are prepared from 0.38% sodium citrate treated blood. PRP is obtained by centrifugation at 180×g for 10 minutes and PPP by centrifuging the remaining red cell layer 1000×g for 10 minutes. Aggregation is determined by the turbidometric method of Born G.V.R., Nature, 194, 927, (1962), and monitored at 37° C. with a Payton dual channel module with stirring speed set at 900 rpm. PRP (0.45 ml) is added to a siliconized cuvette and prewarmed to 37° C. Zero and 100% light transmission are set with PRP and PPP, respectively. AA (50 μl) is added to the stirring PRP one minute after the addition of 5 μl of the compound to be tested. A threshold dose (0.3 to 1 mM) of AA is chosen which causes maximum aggregation at about 2 minutes. […] Activities of compounds of the invention in this test can be found in Table III below.

Data set [3] has as its system Platelet Activating Factor (PAF) induced aggregation of human platelet rich plasma. Description: Inhibition of platelet activating factor (PAF) induced platelet aggregation. The settings on record: human PRP, PAF 1 μM, first phase response. In kind it is cell-based. On the procedure: as §3, with “which was cited above,” for “G.V.R., Nature, 194, 927, (1962),”, “PAF” for “AA”, “PRP prepared from citrated human blood will aggregate when stirred in the presence of PAF giving a two phase response. The first phase is caused by PAF and the second phase is caused by the release of arachidonic acid. PAF is used at 1 μM and only the first phase response, about 30% aggregation, is evaluated. The first phase is resistant to indomethacin. 50% inhibition of the 1st phase PAF response is calculated from” for “A threshold”, “curves and represented as IC50 values.” for “(0.3 to 1 mM) of AA is chosen which causes maximum aggregation at about 2 minutes.”

In data set [4] the test system is ventricular arrhythmias induced by 2-stage ligation of the coronary artery. Description: Ventricular arrhythmias induced by 2-stage ligation of the coronary artery (Harris dogs). In kind it is in vivo, dog (mongrel). The settings on record: for incidence of ventricular premature contractions and conversion to sinus rhythm: n=5. The procedure:
(2) Test for effectiveness against ventricular arrhythmias induced by 2-stage ligation of the coronary artery in dogs (Harris dogs)
Mongrel dogs weighing between 8-14 kg were anesthetized using 30 mg/kg i.v. of sodium pentobarbital. They were artificially ventilated with room air. After thoracotomy via the fourth left intercostal space, the pericardium was opened. The left anterior descending artery was dissected free for a few millimeters near the distal edge of the […] and ligated there in two stages being separated by an interval of 30 minutes. […] Electrograms were monitored continuously throughout the experiment and the number of ventricular and sinus beats (expressed per minute) was counted for 5 minutes every 15 or 30 minutes after p.o. administration of compound and the percentage of ventricular premature beats were calculated.

Data set [5] deals with T1, thromboxane A2 synthetase (Oryctolagus cuniculus, UniProt G1TAZ9).
T1 construct: Using washed rabbit platelets as the enzyme sources; from tissue; host or cells: washed rabbit platelets
T1 sequence (G1TAZ9 1-530): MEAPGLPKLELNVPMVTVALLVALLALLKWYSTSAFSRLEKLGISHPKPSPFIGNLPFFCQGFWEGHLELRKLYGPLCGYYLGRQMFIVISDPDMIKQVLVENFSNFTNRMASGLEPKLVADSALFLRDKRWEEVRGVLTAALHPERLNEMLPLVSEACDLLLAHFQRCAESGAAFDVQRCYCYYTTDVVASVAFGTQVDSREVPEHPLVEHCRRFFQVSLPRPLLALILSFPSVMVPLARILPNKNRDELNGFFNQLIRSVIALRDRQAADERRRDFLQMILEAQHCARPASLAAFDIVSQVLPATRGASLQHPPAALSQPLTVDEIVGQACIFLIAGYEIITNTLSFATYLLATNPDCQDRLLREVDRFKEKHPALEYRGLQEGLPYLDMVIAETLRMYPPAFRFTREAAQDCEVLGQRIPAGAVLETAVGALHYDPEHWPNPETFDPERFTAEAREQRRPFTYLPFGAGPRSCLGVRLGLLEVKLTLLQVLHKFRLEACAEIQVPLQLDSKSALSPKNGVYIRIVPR
Kind of data set: Thromboxane A2 synthetase inhibition, washed rabbit platelets, C^14-arachidonic acid substrate. In kind it is biochemical. The following applies: in vitro. The procedure: as §1, §2

Data set [6] addresses T2, thromboxane A2 synthetase (Homo sapiens, UniProt P24557).
T2 construct: thromboxane A2 synthetase activity of human platelets; from tissue; host or cells: human platelets
T2 sequence (P24557 1-533): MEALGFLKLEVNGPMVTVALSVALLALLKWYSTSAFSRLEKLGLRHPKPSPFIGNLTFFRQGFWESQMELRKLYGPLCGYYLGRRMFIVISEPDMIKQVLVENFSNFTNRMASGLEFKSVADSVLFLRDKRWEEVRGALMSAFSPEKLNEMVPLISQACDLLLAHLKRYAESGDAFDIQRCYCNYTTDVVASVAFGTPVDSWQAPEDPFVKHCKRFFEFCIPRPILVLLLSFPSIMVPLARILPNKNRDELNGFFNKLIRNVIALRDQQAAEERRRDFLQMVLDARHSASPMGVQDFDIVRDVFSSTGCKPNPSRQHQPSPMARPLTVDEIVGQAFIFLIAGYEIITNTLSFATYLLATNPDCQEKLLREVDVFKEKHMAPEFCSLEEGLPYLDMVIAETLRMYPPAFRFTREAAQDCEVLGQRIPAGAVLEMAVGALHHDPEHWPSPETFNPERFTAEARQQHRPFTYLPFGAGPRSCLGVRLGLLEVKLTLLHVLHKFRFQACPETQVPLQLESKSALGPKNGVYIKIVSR
Description: Thromboxane A2 synthetase inhibition, human platelets, PG H2 substrate. In kind it is biochemical. The following applies: PG H2 as the substrate, read-out: thromboxane A2 synthetase inhibition IC50 range.
From the text: as §2

The subject of data set [7] is collagen-induced rabbit platelet aggregation. Kind of data set: Ex vivo inhibition of collagen-induced rabbit platelet aggregation by plasma of orally treated rats. Type of data set: in vivo, rabbit platelets; plasma of treated rats. The settings on record: for collagen-induced platelet aggregation, % of control: 4 rats, 1 hour after dosing, collagen 3 μg/ml, control = 100%. The procedure: (4) Ex vivo experiments: Inhibition of rabbit platelet aggregation induced by collagen by the plasma of rats treated with oral rac.-2-amino-N-(2,6-dimethylphenyl)-N-[3-(3-pyridinyl)propyl]propanamide dihydrochloride
The antiplatelet aggregatory activity of rac.-2-amino-N-(2,6-dimethylphenyl)-N-[3-(3-pyridinyl) propyl]propanamide dihydrochloride was observed ex vivo in rats.
control. The control = 100% platelet aggregation.
An aliquot (125 μl) of the platelet free plasma of the rats which had
been orally treated with compound for 1 hour was added to the platelet
rich plasma (125 μl) of the rabbit. Collagen (3 μg/ml) induced
platelet aggregation was measured turbidimetrically.

[8] abbreviates: read-out: Ouabain Induced Arrhythmias MED, Table III.

Broadly, the IC50 is the concentration that gives 50% inhibition. As for `Cc1cccc(C)c1N(CCCCc1cccnc1)C(=O)C(C)N` (centres unmarked), the “Ouabain Induced Arrhythmias: number converted/number tested” value in data set [1] (converted at 3 mg/kg IV) is reported as 1/3. Moreover, the IC50 at Thromboxane Synthase was 10 to 100 µM; in data set [2], more than 10 µM; in data set [3], more than 10 µM.
`CC(N)C(=O)N(CCCc1cccnc1)c1ccccc1` (racemic) [H H H, rac.-2-amino-N-phenyl-N-[3-(3-pyridinyl)propyl]propanamide]: in data set [1] (setting [8]), the minimal effective dose is more than 10 mg/kg. Also, the IC50 on Thromboxane Synthase was 10 to 100 µM.
On to `Cc1cccc(C)c1N(CCCc1cccnc1)C(=O)Cn1ccnc1`, for which, in data set [1] (dead at 1 mg/kg IV), the “Ouabain Induced Arrhythmias: number dead/number tested” value is recorded as 1/2. Moreover, the IC50 is 0.1 to 1 µM at Thromboxane Synthase, more than 10 µM in data set [2] and 1 µM in data set [3].
With `Cc1cccc(C)c1N(CCCCn1ccnc1)C(=O)C(C)N` (centres unmarked), the minimal effective dose in data set [1] (setting [8]) was more than 10 mg/kg. Further, the values for the IC50 (on Thromboxane Synthase; in data set [2]; in data set [3]) were approximately 10 µM, more than 10 µM and more than 10 µM, respectively.
For the molecule `Cc1ccc(N(CCCc2cccnc2)C(=O)C(C)N)cc1` (racemic) [H H CH3, rac.-2-amino-N-(4-methylphenyl)-N-[3-(3-pyridinyl)propyl]propanamide], the minimal effective dose in data set [1] (setting [8]) is more than 10 mg/kg. Moreover, the IC50 at Thromboxane Synthase is 10 to 100 µM.
`Cc1cccc(C)c1NC(=O)C(C)N` (centres unmarked) [reference compound]: the minimal effective dose in data set [1] (setting [8]) stood at 15.5 ± 3.4 mg/kg. The IC50 in data set [2] and in data set [3] was more than 100 µM in each case.
Broadly, the ED50 is the midpoint of the dose-response relation. Take `Cc1cccc(C)c1N(CCCc1cccnc1)C(=O)C(C)N.Cl.Cl` (racemic) [rac.-2-amino-N-(2,6-dimethylphenyl)-N-[3-(3-pyridinyl)propyl]propanamide dihydrochloride]: the results for the “No. of effective cases/No. of experiments” value in data set [1] (1 mg/kg i.v.), in data set [1] (3 mg/kg i.v.) and in data set [1] (10 mg/kg i.v.) were 0/4, 4/5 and 1/1, respectively. Further, the minimal effective dose in data set [1] (0.25 h, successive injections of 1, 3 and 10 mg/kg at 15 minute intervals, read-out: MED (minimum effective dose), Table I) came out at 4.4 ± 1.4 mg/kg; in data set [1] (setting [8]), 4.4 ± 1.4 mg/kg. Further, the “onset of the antiarrhythmic effects” value in data set [4] (30 mg/kg p.o.) was “approximately 1 hour”; in data set [4] (100 mg/kg p.o.) it was approximately 2 h. The figures for the “time of maximum effect after dosing” value in data set [4] (30 mg/kg p.o.) and in data set [4] (100 mg/kg p.o.) were 5 h and 2.5 h, respectively. Besides, the “percentage of ventricular premature beats at maximum effect” value in data set [4] (30 mg/kg p.o., 5 hours after dosing, from 94±1.5%, p<0.01) is listed as 13±7.9%; in data set [4] (100 mg/kg p.o., 2.5 hours after dosing, from 94±0.5%, p<0.05), 10±9.5%. Moreover, the “incidence of ventricular premature contractions and conversion to sinus rhythm” value in data set [4] (30 mg/kg p.o.) is “dramatically decreased the incidence of ventricular premature contractions (VPCs) and converted ventricular arrhythmias to sinus rhythm”; in data set [4] (100 mg/kg p.o.) it was “dramatically decreased the incidence of ventricular premature contractions (VPCs) and converted ventricular arrhythmias to sinus rhythm”. The “duration of the antiarrhythmic effects after dosing” value in data set [4] (30 and 100 mg/kg p.o.) is reported as “at least 6 hours”. Further, the IC50 in data set [5] was 38 µM; in data set [6], 1 to 10 µM; on Thromboxane Synthase, 10 to 100 µM; in data set [2], 5 µM; in data set [3] it was 20 µM. Further, the “collagen-induced platelet aggregation, % of control” value in data set [7] (50 mg/kg p.o.) is on record as 77.1 ± 11.7 % of control; in data set [7] (100 mg/kg p.o., p < 0.01), 64.8 ± 6.2 % of control; in data set [7] (200 mg/kg p.o., p < 0.01), 40.3 ± 14.0 % of control. Further, the median effective dose (ED50) in data set [7] (Rattus norvegicus, Platelet, po, plasma of rats treated orally for 1 hour, read-out: ED50, inhibition of collagen-induced rabbit platelet aggregation (95% confidence limit)) is 123 mg/kg. The “ED50, inhibition of collagen-induced rabbit platelet aggregation (95% confidence limit)” value in data set [7] (plasma of rats treated orally for 1 hour, dihydrochloride, 60 min) is reported as 123 (85-274) mg/kg p.o.
For `Cc1cccc(C)c1N(CCCc1cccnc1)C(=O)Cn1ccnc1C`, the minimal effective dose in data set [1] (setting [8]) was more than 10 mg/kg. For the same molecule, the IC50 at Thromboxane Synthase was 0.1 to 1 µM; in data set [2], more than 10 µM; in data set [3], more than 10 µM.
For `Cc1cccc(C)c1N(CCn1ccnc1)C(=O)CCCc1cccnc1`, in data set [1] (dead at 3 mg/kg IV), the “Ouabain Induced Arrhythmias: number dead/number tested” value is given as 1/2. Moreover, the IC50 on Thromboxane Synthase is 0.1 to 1 µM; in data set [2], 0.5 µM; in data set [3] it was 0.5 µM.
In the case of `Cc1cccc(C)c1N(CCCCCCc1cccnc1)C(=O)C(C)N` (centres unmarked), the minimal effective dose in data set [1] (setting [8]) came to 8.3 ± 1.8 mg/kg. Also, the IC50 at Thromboxane Synthase was in the range of 10 to 100 µM.
